Values after ≈ are worked out from the molar mass of the structure shown. Read-outs that look alike come from different tables or passages of the source.
Legend:
[1] = target: Nucleosome assembly protein 1 (NAP1) (Plasmodium knowlesi, UniProt A0A384KYS3); assay: Thermal shift (thermal melt) assay, Sypro orange; assay type: binding, P. knowlesi; conditions: for Kd: approximate, computed from the thermal shift
Description: (§1) High throughput thermal shift assays were carried out following established guidelines (Additional file 1: Table S1). Protein melting curves were obtained from samples aliquoted in 96-well plates using a RealPlex quantitative PCR instrument from Eppendorf (Eppendorf, NY, USA), with Sypro orange dye from Invitrogen as the fluorescent probe. A uniform final concentration of 5 X (supplied as a 5000 X stock solution) was used in all experiments. The dye was excited at 465 nm and emission recorded at 580 nm using the instrument’s filters. A heating ramp of 1°C/min from 25°C to 74°C was used, and one data point acquired for each degree increment. For standardization, different buffers and pH were checked. Thereafter, 100 mM HEPES pH 7.3 and 150 mM NaCl were used in all unfolding experiments. The volume of each reaction was 20 μl, and appropriate dye and protein controls were included. All experiments were done with a minimum of two replicates, with the mean value considered for further analysis. Several drugs/small molecules interact with Sypro orange and lead to aberrant signal enhancements. An additional control to rule out drug-dye interaction was carried out with all the constituents kept constant except for the protein of interest. The protein/protein-drug curves were reported after subtracting the respective dye alone/drug-dye curves.
(§2) Each melting curve was assigned a quality score (Q), the ratio of the melting-associated increase in fluorescence (ΔFmelt) to the total fluorescence range (ΔFtotal). Q = 1 is a high-quality curve, while Q = 0 indicates no thermal transition. Though an arbitrary Q value cutoff was not applied to judge curve quality, the curves were manually curated with Q values reported. […] These were ignored (see Table 1).
(§3) Subsequent to standardization, (see SI Methods), the validity of the top 1% of […]^comb’s predictions on the test set of eight diverse proteins was examined. To be conservative, we focused only on those protein/ligand pairs showing single sigmoidal thermal transition curves. The fit to Boltzmann’s equation (Eq. 1) was employed to estimate the melting temperature from the observed intensity, I.
(§4) (4) I=Imin+Imax-Imin/1+e^Tm-T/a
(§5) Imin and Imax are the minimum and maximum intensities; a denotes the slope of the curve at the transition midpoint temperate, Tm. To estimate thermodynamic parameters, both van’t Hoff and Gibbs-Helmholtz analyses were done. To estimate the approximate ligand-binding affinity at Tm, Eq. (2) from reference was used with slight modifications; ΔCp is ignored.
(§6) (5) KLTm=exp-ΔH/R1/Tm-1/To/L
(§7) KL(Tm) is the ligand association constant and [L] is the free ligand concentration at Tm ([LTm] ~ [L]total, when [L]total > > the total concentration of protein. KD is the inverse of KL(Tm).
(§8) Thermal unfolding of the eight benchmark proteins was carried out in a 20 μl reaction mix with 100 mM HEPES pH 7.3, 150 mM NaCl, 5 X Sypro orange dye, 10 μM protein and 1 mM of all the predicted ligands.

[2] = target: T1, Tryptophanyl tRNA synthetase (TrpRS) (Homo sapiens, UniProt P23381); assay: Thermal shift (thermal melt) assay, Sypro orange; assay type: binding, H. sapiens; conditions: for Q (quality score): ratio ΔFmelt/ΔFtotal
T1 sequence (P23381 1-471): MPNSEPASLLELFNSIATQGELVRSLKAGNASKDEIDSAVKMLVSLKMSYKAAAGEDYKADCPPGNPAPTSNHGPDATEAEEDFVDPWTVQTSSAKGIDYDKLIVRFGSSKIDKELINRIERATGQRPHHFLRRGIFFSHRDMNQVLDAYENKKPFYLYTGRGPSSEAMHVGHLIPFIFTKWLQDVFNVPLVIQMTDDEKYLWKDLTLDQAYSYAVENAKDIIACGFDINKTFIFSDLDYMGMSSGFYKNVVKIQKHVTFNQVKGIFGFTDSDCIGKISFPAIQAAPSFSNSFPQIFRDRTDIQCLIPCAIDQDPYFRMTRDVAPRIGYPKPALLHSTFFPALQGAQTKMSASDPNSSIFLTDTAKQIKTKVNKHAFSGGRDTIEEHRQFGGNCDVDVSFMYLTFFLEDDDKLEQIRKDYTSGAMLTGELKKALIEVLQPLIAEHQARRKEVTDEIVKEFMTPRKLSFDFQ
Description: as §1, with “The dye was excited at 465 nm and emission recorded at 580 nm using the instrument’s filters. A heating ramp of 1°C/min from 25°C to 74°C was used, and one data point acquired for each degree increment.” left out
(§9) Each melting curve was assigned a quality score (Q), the ratio of the melting-associated increase in fluorescence (ΔFmelt) to the total fluorescence range (ΔFtotal). Q = 1 is a high-quality curve, while Q = 0 indicates no thermal transition. Though an arbitrary Q value cutoff was not applied to judge curve quality, the curves were manually curated with Q values reported.
as §3, §4, §5, §6, §7, §8

[3] = tested on: HCT-116 colon carcinoma cell line; assay: Cytotoxic assay on cancer cell line; assay type: cell-based; conditions: for IC50: Homo sapiens, HCT-116, inhibitory concentration for 50% growth inhibition, read-out: HCT-116 (IC-50)
Description: Antimicrobial and anti-cancer tests were performed as in [80].

[4] = target: Ubiquitin conjugating enzyme (UCE) (Plasmodium falciparum, UniProt Q8I607); assay: Thermal shift (thermal melt) assay, Sypro orange; assay type: binding, P. falciparum; conditions: for Kd: approximate, computed from the thermal shift, read-out: KD (Approx)
Ubiquitin conjugating enzyme (UCE), sequence (Q8I607 1-147): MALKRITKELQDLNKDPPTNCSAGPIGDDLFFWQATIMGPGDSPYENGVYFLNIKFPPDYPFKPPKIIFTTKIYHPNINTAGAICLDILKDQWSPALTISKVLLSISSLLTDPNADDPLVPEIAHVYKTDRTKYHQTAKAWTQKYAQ
Description: as §1, §2, §3, §4, §5, §6, §7, §8

[5] = target: E. coli dihydrofolate reductase (DHFR) (Escherichia coli, UniProt P0ABQ4); assay: biochemical; assay type: binding; conditions: Table S3; for Kd: computed from the thermal shifts obtained, read-out: KD (Approx); for Q (quality score): ratio ΔFmelt/ΔFtotal of the melting curve; for ΔTm: thermal shift, in °C (unit assumed)
E. coli dihydrofolate reductase (DHFR), sequence (P0ABQ4 whole entry): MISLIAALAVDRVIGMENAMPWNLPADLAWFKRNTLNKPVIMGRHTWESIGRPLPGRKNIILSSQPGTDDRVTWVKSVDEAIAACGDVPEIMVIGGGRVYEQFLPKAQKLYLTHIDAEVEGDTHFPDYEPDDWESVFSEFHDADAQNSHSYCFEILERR
Description: as §1, with “The dye was excited at 465 nm and emission recorded at 580 nm using the instrument’s filters. A heating ramp of 1°C/min from 25°C to 74°C was used, and one data point acquired for each degree increment.” left out
as §9, §3, §4, §5, §6, §7, §8

[6] = target: T2, 1000006: catalytic domain of protein tyrosine phosphatase (2G59) (Homo sapiens, UniProt Q16827); assay: Thermal shift (thermal melt) assay, Sypro orange; assay type: binding, H. sapiens; conditions: for ΔTm: in °C (unit assumed)
T2 construct: the catalytic domain of PTP from H. sapiens (PDB ID: 2G59) (1000006); New York structural genomics consortium (gift)
T2 sequence (Q16827 938-1195 limits assumed): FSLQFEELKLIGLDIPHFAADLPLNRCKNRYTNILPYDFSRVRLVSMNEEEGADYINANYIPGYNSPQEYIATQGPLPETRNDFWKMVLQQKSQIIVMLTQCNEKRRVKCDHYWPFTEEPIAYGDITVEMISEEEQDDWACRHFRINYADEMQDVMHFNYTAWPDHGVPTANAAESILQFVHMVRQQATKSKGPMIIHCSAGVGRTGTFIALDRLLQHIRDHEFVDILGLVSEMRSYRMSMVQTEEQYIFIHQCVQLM
Description: as §1, §2, §3, §4, §5, §6, §7, §8

[7] = target: T3, 1000001: Carboxy-terminus phosphatase domain of protein tyrosine phosphatase (2NV5) (Mus musculus, UniProt Q64487); assay: Thermal shift (thermal melt) assay, Sypro orange; assay type: binding, M. musculus; set-up: key to Q (quality score): Q = ΔFmelt/ΔFtotal; 1 = high-quality curve, 0 = no transition; conditions: for ΔTm: in °C (unit assumed); for Q (quality score): ratio ΔFmelt/ΔFtotal
T3 construct: The C-terminal phosphatase domain from R. norvegicus (PDB ID: 2NV5) (1000001); New York structural genomics consortium (gift)
T3 sequence (Q64487 1331-1621): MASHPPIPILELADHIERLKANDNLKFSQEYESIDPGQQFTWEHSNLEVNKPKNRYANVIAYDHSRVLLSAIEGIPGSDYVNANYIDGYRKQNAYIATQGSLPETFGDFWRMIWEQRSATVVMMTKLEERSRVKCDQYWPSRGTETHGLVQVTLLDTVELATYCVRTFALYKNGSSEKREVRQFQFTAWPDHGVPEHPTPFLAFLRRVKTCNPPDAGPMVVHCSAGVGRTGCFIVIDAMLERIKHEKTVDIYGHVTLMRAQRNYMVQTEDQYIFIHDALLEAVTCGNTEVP
Description: as §1, §2, §3, §4, §5, §6, §7, §8

[8] = thermal shift, 1 mM ligand, 10 μM protein
[9] = Table S4, TrpRS, computed from the thermal shifts obtained, read-out: KD (Approx)
[10] = Table S4, TrpRS, in °C (unit assumed)
[11] = approximate, computed from the thermal shift, read-out: KD
[12] = inhibitory concentration for 50% growth inhibition
[13] = Table S6, known binders of 1000001 tested on 1000006
[14] = Table S4, protein 1000001, computed from the thermal shifts obtained, read-out: KD (Approx)
[15] = Table S6, 1000001, known binders of 1000001

Nucleosome assembly protein 1 (NAP1), sequence (A0A384KYS3 entry or part of it): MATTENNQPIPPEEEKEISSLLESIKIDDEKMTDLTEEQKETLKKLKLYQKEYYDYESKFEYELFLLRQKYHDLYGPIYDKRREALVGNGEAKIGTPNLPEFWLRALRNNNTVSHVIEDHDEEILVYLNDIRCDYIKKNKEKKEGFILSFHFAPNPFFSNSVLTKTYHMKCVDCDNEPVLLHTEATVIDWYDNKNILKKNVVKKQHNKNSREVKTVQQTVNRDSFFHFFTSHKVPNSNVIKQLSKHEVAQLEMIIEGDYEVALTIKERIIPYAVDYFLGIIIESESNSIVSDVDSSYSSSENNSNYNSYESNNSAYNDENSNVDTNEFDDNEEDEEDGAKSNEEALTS

O=C1C[C@@H](c2ccc(O)cc2)Oc2cc(O)cc(O)c21 [NSC 34875]
Q (quality score of melting curve, ΔFmelt/ΔFtotal) [1]: 0.6
ΔTm ([1]; Table S5, 1 mM ligand): 1.74 °C
Kd ([1]; read-out: KD (Approx)): 224 µM

O=C1c2cc(O)c(O)cc2OC(c2ccc(O)c(O)c2)C1O (stereo not shown) [NSC 36398]
Q (quality score of melting curve, ΔFmelt/ΔFtotal) [1]: 0.2
Kd ([1]; read-out: KD): 180 µM
Kd ([1]; read-out: KD (Approx)): 180 µM
ΔTm [1, 8]: 2.21 °C

O=C(Nc1cccc([N+](=O)[O-])c1)c1cc2ccccc2cc1O [NSC 37168]
Kd [2, 9]: ~9.06 µM
ΔTm [2, 10]: 9.9
Q (quality score) ([2]; Table S4, TrpRS): 0.4
Kd [2, 11]: ~9.1 µM
HCT-116 (IC-50) [3, 12]: 1.34 µg/mL

O=C(Nc1ccc(Cl)cc1)c1cc2c(cc1O)[nH]c1ccccc12 [NSC 50651]
Q (quality score of melting curve, ΔFmelt/ΔFtotal) [4]: 0.13
ΔTm ([4]; Table S5, 1 mM ligand): 2.25 °C
Kd ([4]; listed as 50651): 197 µM
Kd ([4]; listed as NSC50651): 197 µM

CCOc1ccc(NC(=O)c2cc3ccccc3cc2O)cc1 [NSC 50690]
Kd [5]: ~463 µM
Q (quality score) [5]: 0.3
ΔTm [5]: 0.23
Kd ([6]; Table S4, protein 1000006, computed from the thermal shifts obtained, read-out: KD (Approx)): ~51.5 µM
ΔTm ([6]; Table S4, protein 1000006): 4.59
Q (quality score) ([6]; Table S4, protein 1000006, ratio ΔFmelt/ΔFtotal): 0.8
Kd [2, 9]: ~7.74 µM
ΔTm [2, 10]: 10.27
Q (quality score) ([2]; Table S4, TrpRS): 0.8
Kd [2, 11]: 7.7 µM

Nc1ccc(NC(=O)c2ccc(C(=O)Nc3ccc(N)cc3)cc2)cc1 [NSC 55152]
Kd [5]: ~73.8 µM
Q (quality score) [5]: 0.2
ΔTm [5]: 5.89
Kd [2, 9]: ~39.6 µM
ΔTm [2, 10]: 6.17
Q (quality score) ([2]; Table S4, TrpRS): 0.95
Kd [2, 11]: 39.6 µM

Nc1ccn([C@@H]2O[C@H](CO)[C@@H](O)[C@@H]2O)c(=O)n1 [NSC 63878]
Kd ([1]; read-out: KD (Approx)): 183 µM

Oc1cccc2nc3ccccc3nc12 [NSC 88882]
ΔTm [6, 13]: 4.39
Kd [7, 14]: ~1.47 µM
ΔTm ([7]; Table S4, protein 1000001): 9.98
Q (quality score) ([7]; Table S4, protein 1000001): 0.8
ΔTm [7, 15]: 9.79
Kd [2, 9]: ~3.83 µM
ΔTm [2, 10]: 12.07
Q (quality score) ([2]; Table S4, TrpRS): 0.6
Kd [2, 11]: ~3.8 µM
HCT-116 (IC-50) ([3]; Table S4): 4.44
HCT-116 (IC-50) [3, 12]: 4.44 µg/mL

O=C(O)c1cc(O)ccc1N=Nc1ccccc1 [NSC 106863]
ΔTm [6, 13]: 0
Kd [7, 14]: ~6.47 µM
ΔTm ([7]; Table S4, protein 1000001): 7.4
Q (quality score) ([7]; Table S4, protein 1000001): 1.1
ΔTm [7, 15]: 7.34
HCT-116 (IC-50) [3, 12]: 14.5 µg/mL

CC(=O)c1cc(O)c2ccccc2c1O [NSC 111552]
ΔTm [6, 13]: 29.52
Kd [7, 14]: ~0.709 µM
ΔTm ([7]; Table S4, protein 1000001): 11.3
Q (quality score) ([7]; Table S4, protein 1000001): 0.007
HCT-116 (IC-50) [3, 12]: 2.2 µg/mL

Cc1nc2c(O)cccc2cc1CO [NSC 227309]
Q (quality score of melting curve, ΔFmelt/ΔFtotal) [1]: 0.8
ΔTm ([1]; Table S5, 1 mM ligand): 0.64 °C
Kd ([1]; read-out: KD (Approx)): 371 µM

CCCCC(=O)OCC(=O)[C@]1(O)Cc2c(O)c3c(c(O)c2[C@@H](O[C@H]2C[C@H](NC(=O)C(F)(F)F)[C@H](O)[C@H](C)O2)C1)C(=O)c1c(OC)cccc1C3=O [NSC 246131, valrubicin, reference compound]
ΔTm [6, 13]: 5.62
Kd [7, 14]: ~1.47 µM
ΔTm ([7]; Table S4, protein 1000001): 9.99
Q (quality score) ([7]; Table S4, protein 1000001): 0.2
ΔTm [7, 15]: 10.31
Kd [7, 11]: ~1.5 µM
IC50 [3]: 0.024 µg/mL (≈ 0.0332 µM)

CCN(CC)CCNC(=O)c1c(C)[nH]c(/C=C2\C(=O)Nc3ccc(F)cc32)c1C [NSC 750690, Sunitinib, reference compound]
Q (quality score) ([2]; Table S4, TrpRS): 1.3
ΔTm [2, 8]: 14.57 °C
IC50 [3]: 1.1 µg/mL (≈ 2.76 µM)
HCT-116 (IC-50) [3, 12]: 1.11 µg/mL

Reference: article PMC4038399, “Experimental validation of [sequence]^comb virtual ligand screening results for eight proteins yields novel nanomolar and micromolar binders” (Journal of Cheminformatics, 2014)
